pEC50, pIC50: −log10 of the molar value. Read-outs that look alike come from different tables or passages of the source.

The target in one data set is CYP2D6 (Homo sapiens, UniProt P10635). Briefly: CYP2D6 inhibition in liver cells. The class given is in vitro ADME. Particulars: read-out: CYP2D6 IC50; inhibition of cytochrome P450 enzymes in liver cells.
For the next data set, the target named is HDAC2 (Homo sapiens, UniProt Q92769). Briefly: HDAC2 inhibition, Fluor-de-Lys fluorescence assay with purified enzyme.
Sequence of HDAC2 (Q92769 whole entry): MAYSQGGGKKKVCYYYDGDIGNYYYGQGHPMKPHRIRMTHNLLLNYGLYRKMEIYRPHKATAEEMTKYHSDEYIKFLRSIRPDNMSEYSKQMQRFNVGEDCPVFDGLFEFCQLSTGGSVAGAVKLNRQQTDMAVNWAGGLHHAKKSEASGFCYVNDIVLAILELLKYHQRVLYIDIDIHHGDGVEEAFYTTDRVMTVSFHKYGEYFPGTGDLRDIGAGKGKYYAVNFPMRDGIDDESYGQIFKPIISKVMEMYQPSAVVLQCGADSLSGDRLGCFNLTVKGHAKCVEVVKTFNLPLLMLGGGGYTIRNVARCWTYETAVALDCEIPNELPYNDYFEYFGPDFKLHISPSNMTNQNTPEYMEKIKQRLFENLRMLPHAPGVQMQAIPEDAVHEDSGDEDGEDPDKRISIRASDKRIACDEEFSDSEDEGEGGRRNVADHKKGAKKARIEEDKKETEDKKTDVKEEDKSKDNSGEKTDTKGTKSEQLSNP
The target of another data set is CYP3A4 (Homo sapiens, UniProt P08684). In words: CYP3A4 inhibition in liver cells. The format is in vitro ADME. As to conditions: read-out: CYP3A4 IC50; inhibition of cytochrome P450 enzymes in liver cells.
Sequence of CYP3A4 (P08684 whole entry): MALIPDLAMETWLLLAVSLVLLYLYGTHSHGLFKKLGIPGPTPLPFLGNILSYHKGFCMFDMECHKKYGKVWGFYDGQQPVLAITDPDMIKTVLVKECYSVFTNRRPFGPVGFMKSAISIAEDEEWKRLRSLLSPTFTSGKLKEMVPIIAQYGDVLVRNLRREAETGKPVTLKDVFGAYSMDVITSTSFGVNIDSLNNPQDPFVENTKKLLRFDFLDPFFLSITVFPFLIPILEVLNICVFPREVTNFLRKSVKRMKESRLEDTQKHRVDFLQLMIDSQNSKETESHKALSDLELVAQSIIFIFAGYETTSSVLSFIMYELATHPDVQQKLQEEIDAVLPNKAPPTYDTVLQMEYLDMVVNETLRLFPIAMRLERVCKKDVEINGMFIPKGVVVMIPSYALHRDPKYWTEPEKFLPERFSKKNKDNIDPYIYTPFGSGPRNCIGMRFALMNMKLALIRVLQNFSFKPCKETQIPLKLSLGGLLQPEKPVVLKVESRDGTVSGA
In another data set the target is T1, HDAC8 (Homo sapiens, UniProt Q9BY41).
T1 sequence (Q9BY41 1-377): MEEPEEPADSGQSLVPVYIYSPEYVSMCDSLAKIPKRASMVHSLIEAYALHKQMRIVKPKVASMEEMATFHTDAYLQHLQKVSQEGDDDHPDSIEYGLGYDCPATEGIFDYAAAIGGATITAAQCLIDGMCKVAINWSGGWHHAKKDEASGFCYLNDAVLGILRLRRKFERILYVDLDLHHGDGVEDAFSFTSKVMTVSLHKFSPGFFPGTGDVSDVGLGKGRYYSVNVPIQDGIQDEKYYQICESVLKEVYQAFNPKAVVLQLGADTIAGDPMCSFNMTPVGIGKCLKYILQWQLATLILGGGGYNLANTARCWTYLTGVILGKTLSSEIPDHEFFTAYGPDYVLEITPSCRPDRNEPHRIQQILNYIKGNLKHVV
In words: HDAC8 inhibition, recombinant enzyme cell-free assay. As to conditions: read-out: IC50 for Class I HDAC enzymes: HDAC8; Table 1.

Another data set deals with HDAC4 (Homo sapiens, UniProt P56524). In words: HDAC4 inhibition. As to conditions: read-out: IC50 for Class II HDAC enzymes: HDAC4; Table 1.
Sequence of HDAC4 (P56524 whole entry, species assumed): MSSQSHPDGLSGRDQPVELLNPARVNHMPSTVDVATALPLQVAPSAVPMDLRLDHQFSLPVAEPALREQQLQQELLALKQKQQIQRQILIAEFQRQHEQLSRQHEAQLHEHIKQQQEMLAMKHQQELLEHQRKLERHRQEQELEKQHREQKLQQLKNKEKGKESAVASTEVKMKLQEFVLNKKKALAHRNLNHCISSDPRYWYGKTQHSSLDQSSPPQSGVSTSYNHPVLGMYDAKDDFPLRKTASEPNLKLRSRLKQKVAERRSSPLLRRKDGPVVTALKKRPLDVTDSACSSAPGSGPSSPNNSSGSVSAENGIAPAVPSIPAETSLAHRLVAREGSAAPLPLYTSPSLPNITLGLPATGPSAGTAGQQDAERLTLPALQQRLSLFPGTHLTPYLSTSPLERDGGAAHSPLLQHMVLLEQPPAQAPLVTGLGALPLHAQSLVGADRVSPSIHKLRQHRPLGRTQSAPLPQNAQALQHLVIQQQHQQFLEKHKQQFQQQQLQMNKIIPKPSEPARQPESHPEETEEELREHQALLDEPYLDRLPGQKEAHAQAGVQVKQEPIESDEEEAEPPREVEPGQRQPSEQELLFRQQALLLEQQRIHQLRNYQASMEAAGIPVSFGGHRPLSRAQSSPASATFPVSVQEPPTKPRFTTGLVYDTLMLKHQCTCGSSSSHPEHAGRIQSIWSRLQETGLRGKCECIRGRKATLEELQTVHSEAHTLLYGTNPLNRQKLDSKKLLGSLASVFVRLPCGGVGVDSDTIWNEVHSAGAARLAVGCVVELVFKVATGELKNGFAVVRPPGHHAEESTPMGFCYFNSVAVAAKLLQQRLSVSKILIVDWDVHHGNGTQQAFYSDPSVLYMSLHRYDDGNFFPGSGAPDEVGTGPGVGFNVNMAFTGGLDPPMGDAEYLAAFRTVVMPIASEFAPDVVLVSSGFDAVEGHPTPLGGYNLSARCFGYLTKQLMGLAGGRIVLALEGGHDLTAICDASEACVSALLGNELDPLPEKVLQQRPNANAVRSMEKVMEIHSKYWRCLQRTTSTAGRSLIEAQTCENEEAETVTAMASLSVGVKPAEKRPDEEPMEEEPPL
Another data set addresses HDAC5 (Homo sapiens, UniProt Q9UQL6). Briefly: HDAC5 inhibition. Particulars: read-out: IC50 for Class II HDAC enzymes: HDAC5; Table 1.
The target in the next data set is T2, HDAC7 (Homo sapiens, UniProt Q8WUI4).
T2 sequence (Q8WUI4 1-952): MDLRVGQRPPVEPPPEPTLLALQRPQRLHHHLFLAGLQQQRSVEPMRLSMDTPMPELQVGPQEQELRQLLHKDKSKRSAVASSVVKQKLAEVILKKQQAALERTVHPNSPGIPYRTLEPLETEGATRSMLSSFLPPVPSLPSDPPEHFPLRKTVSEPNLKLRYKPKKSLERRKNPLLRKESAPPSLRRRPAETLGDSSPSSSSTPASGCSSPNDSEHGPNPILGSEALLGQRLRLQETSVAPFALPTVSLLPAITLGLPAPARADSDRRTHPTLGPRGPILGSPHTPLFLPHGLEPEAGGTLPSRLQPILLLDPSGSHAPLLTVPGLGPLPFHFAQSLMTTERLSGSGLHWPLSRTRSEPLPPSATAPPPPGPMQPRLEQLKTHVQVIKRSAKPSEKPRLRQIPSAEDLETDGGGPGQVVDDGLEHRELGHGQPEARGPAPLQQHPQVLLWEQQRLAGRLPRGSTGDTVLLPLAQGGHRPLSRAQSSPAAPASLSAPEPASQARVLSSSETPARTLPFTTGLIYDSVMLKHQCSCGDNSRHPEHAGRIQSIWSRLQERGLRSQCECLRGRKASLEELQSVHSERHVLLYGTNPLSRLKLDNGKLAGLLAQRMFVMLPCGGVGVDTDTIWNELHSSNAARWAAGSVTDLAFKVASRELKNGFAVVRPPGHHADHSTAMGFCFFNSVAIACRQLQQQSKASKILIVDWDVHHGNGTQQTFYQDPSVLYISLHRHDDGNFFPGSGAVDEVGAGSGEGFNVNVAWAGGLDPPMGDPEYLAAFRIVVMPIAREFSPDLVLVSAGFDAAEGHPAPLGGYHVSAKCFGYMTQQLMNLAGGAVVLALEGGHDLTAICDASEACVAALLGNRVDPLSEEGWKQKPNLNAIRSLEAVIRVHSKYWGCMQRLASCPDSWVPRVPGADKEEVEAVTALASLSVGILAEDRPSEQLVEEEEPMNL
In words: HDAC7 inhibition. Particulars: read-out: IC50 for Class II HDAC enzymes: HDAC7; Table 1.

In another data set the test system is IMR90 cells. The format is cell-based, human. Particulars: read-out: Proliferation inhibition IMR90, IC50; 72h.
The next data set concerns Hct116 cells. In words: Cell proliferation inhibition assay, Hct116. The format is cell-based, human. As to conditions: for pIC50: read-out: Proliferation inhibition Hct116, IC50, 72h.
Data set [1] deals with HD-related gene expression in striatum, R6/2 transgenic mice. In words: Real-time PCR of HD-related genes in striatum of R6/2 transgenic mice. A general note: In qPCR the cycle at which signal appears reflects the starting amount.
The test system of the next data set is STHdhQ111 striatal cells. Briefly: XTT assay of metabolic activity in STHdhQ111 striatal cells. The format is cell-based, mouse. Particulars: 24 and 48 hrs. (Tetrazolium dyes change colour on reduction, which living cells bring about.)
Data set [2] deals with Vdr and Dhrs4 expression in STHdhQ111 cells. Briefly: Expression of Vdr and Dhrs4 in STHdhQ111 striatal cells. The format is cell-based, mouse.
In data set [3] the test system is class I and class II HDAC enzymes. Briefly: HDAC subtype selectivity profile from IC50 values. As to conditions: in words.

Sequence of CYP2D6 (P10635 whole entry): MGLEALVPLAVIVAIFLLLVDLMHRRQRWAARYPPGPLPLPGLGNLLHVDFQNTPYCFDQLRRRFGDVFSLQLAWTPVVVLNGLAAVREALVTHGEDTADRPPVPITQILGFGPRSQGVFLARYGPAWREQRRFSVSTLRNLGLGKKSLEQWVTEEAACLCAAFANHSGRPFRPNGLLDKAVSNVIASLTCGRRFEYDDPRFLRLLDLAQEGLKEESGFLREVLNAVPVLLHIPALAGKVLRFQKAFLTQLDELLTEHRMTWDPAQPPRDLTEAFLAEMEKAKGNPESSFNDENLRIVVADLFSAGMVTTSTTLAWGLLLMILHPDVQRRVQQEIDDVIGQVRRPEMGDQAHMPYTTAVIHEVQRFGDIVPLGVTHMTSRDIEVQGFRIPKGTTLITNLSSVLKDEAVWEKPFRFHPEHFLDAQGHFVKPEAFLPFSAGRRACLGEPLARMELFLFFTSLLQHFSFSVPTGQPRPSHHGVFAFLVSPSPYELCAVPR
Sequence of HDAC5 (Q9UQL6 whole entry, species assumed): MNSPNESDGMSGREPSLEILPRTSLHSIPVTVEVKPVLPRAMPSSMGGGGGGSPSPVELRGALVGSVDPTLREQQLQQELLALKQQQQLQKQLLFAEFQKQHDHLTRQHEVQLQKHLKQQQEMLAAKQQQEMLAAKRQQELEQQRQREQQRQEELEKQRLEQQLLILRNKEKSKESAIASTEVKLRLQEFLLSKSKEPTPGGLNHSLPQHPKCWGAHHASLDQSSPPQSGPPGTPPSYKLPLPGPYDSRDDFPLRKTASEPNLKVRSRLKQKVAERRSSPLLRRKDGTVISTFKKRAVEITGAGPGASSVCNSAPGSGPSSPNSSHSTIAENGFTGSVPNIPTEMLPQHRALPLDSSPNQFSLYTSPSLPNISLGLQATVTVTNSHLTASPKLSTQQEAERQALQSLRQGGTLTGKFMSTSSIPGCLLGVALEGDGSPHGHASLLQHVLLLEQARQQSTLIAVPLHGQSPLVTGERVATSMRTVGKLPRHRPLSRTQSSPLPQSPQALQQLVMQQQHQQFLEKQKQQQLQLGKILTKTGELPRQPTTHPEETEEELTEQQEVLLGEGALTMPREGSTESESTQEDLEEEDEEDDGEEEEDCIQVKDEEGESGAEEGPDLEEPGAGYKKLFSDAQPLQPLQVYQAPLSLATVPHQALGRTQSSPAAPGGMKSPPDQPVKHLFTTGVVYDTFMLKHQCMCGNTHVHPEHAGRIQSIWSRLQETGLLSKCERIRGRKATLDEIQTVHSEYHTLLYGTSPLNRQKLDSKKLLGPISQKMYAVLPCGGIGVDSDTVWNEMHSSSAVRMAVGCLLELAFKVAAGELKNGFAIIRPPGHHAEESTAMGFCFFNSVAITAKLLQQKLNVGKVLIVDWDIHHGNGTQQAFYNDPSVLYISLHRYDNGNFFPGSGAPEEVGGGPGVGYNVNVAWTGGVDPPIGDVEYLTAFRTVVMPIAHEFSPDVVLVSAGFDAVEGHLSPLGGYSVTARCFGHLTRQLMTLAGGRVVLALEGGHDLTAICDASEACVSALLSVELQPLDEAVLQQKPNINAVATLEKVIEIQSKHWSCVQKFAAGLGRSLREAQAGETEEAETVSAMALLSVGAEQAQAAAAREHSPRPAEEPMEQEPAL

On to `Nc1ccc(-c2cccs2)cc1NC(=O)CCCCCCNC(=O)c1cccnc1` [compound 233], for which the pIC50 on CYP2D6 is under 5.00; at HDAC2 (read-out: HDAC2 IC50, Table 2) it was 7.15; on CYP3A4, 6.96.

With `Cc1ccc(C(=O)NCCCCCC(=O)Nc2ccc(F)cc2N)cc1` [compound 136], the pIC50 on HDAC8 is 4.88; on HDAC4, under 3.74; on HDAC5, under 3.74; at HDAC7 it was under 3.74; with IMR90 cells it was under 4.30; in the data set with Hct116 cells, 4.40. The pIC50 on CYP2D6 is under 5.00; on HDAC2 (read-out: IC50 for Class I HDAC enzymes: HDAC2, Table 1) it was 5.52. The “reversal of expression of genes relevant to HD, in words” value in [1] (150 mg/kg s.c. three days, striatum) is “most effective”. Further, the “genes whose expression deficits were corrected, of 13 tested” value in data set [1] (qRT-PCR) was “eight of the 13 genes tested”. For the same compound, in the data set on STHdhQ111 striatal cells, the “improvement of the metabolic deficit of STHdhQ111 cells, in words” value was “significantly improved the metabolic deficit”.

For `Cc1ccc(NC(=O)CCCCCC(=O)Nc2ccccc2N)cc1` [4b], the “reversal of gene expression deficits (Vdr, Dhrs4), in words” value in data set [2] was “effective at reversing gene expression deficits”. The pEC50 in the data set on Hct116 cells (read-out: EC50 for inhibition of proliferation of Hct116 cells) was 5.00. The pIC50 was 5.00 in the data set on Hct116 cells, under 5.00 on CYP2D6 and under 5.00 at CYP3A4. Further, the “improvement of the metabolic deficit of STHdhQ111 cells, in words” value in the data set on STHdhQ111 striatal cells was “significantly improved the metabolic deficit”. Moreover, the “activity against the class II HDACs, HDAC 4, 5 and 7” value in [3] is “essentially no activity”.
